How the values were obtained:
Assay in all cases: biochemical
Set-up in all cases: KINOMEscan scanMAX active site-directed competition binding assay, percent of control, 468 kinases
Settings in all cases: competition binding, percent of control
[1] = target: CDK8 (Homo sapiens, UniProt P49336)
Outline: (§1)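 Single-concentration screen (100 μM S-carvone) in a competition binding panel of 468 human kinases (KINOMEscan scanMAX); results given as percent of control, hit cutoff 35%.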

[2] = target: T1, MST4 (Homo sapiens, UniProt Q9P289)
T1 construct: gene STK26
Outline: as §1

[3] = target: T2, CDK4-cyclinD3 (Homo sapiens, UniProt P11802)
T2 construct: cyclinD3
Outline: as §1

[4] = target: LRRK2 (Homo sapiens, UniProt Q5S007)
Outline: as §1

[5] = target: LATS2 (Homo sapiens, UniProt Q9NRM7)
Outline: as §1

[6] = target: EGFR (Homo sapiens, UniProt P00533)
Outline: as §1

[7] = target: T3, BIKE (Homo sapiens, UniProt Q9NSY1)
T3 construct: gene BMP2K
Outline: as §1

[8] = target: HIPK1 (Homo sapiens, UniProt Q86Z02)
Outline: as §1

[9] = target: RET(M918T) (Homo sapiens, UniProt P07949, M918T)
Outline: as §1

[10] = target: KIT(V559D,V654A) (Homo sapiens, UniProt P10721, V559D/V654A)
Outline: as §1

[11] = target: CAMK2B (Homo sapiens, UniProt Q13554)
Outline: as §1

[12] = target: FLT3(D835Y) (Homo sapiens, UniProt P36888, D835Y)
Outline: as §1

[13] = target: ERN1 (Homo sapiens, UniProt O75460)
Outline: as §1

[14] = target: T4, ABL1(E255K)-phosphorylated (Homo sapiens, UniProt P00519, E255K)
T4 construct: phosphorylated
Outline: as §1

[15] = target: ROS1 (Homo sapiens, UniProt P08922)
Outline: as §1

[16] = target: IRAK1 (Homo sapiens, UniProt P51617)
Outline: as §1

[17] = target: CDK5 (Homo sapiens, UniProt Q00535)
Outline: as §1

[18] = target: STK36 (Homo sapiens, UniProt Q9NRP7)
Outline: as §1

[19] = target: T5, YES (Homo sapiens, UniProt P07947)
T5 construct: gene YES1
Outline: as §1

[20] = target: T6, RSK1(Kin.Dom.2-C-terminal) (Homo sapiens, UniProt Q15418)
T6 construct: gene RPS6KA1; Kin.Dom.2-C-terminal
Outline: as §1

[21] = target: NEK11 (Homo sapiens, UniProt Q8NG66)
Outline: as §1

T2 sequence (P11802 whole entry): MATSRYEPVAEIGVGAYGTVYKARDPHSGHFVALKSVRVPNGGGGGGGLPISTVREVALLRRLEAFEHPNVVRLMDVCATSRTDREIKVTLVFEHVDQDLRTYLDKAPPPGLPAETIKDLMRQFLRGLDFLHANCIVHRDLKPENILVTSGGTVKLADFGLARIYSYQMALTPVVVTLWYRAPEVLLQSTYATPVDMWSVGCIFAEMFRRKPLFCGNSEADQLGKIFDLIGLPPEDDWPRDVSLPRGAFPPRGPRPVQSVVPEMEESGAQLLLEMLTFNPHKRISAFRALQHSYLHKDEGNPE
T2 sequence (P30281 whole entry partner): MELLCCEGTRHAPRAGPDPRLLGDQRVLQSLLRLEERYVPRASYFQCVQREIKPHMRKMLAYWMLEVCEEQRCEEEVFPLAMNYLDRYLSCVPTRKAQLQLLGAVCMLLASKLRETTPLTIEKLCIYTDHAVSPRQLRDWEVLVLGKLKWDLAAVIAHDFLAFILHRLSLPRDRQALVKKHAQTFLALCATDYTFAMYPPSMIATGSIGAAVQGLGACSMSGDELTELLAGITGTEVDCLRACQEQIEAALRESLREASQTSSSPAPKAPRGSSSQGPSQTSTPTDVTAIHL
Chain of HIPK1 (Q86Z02 whole entry): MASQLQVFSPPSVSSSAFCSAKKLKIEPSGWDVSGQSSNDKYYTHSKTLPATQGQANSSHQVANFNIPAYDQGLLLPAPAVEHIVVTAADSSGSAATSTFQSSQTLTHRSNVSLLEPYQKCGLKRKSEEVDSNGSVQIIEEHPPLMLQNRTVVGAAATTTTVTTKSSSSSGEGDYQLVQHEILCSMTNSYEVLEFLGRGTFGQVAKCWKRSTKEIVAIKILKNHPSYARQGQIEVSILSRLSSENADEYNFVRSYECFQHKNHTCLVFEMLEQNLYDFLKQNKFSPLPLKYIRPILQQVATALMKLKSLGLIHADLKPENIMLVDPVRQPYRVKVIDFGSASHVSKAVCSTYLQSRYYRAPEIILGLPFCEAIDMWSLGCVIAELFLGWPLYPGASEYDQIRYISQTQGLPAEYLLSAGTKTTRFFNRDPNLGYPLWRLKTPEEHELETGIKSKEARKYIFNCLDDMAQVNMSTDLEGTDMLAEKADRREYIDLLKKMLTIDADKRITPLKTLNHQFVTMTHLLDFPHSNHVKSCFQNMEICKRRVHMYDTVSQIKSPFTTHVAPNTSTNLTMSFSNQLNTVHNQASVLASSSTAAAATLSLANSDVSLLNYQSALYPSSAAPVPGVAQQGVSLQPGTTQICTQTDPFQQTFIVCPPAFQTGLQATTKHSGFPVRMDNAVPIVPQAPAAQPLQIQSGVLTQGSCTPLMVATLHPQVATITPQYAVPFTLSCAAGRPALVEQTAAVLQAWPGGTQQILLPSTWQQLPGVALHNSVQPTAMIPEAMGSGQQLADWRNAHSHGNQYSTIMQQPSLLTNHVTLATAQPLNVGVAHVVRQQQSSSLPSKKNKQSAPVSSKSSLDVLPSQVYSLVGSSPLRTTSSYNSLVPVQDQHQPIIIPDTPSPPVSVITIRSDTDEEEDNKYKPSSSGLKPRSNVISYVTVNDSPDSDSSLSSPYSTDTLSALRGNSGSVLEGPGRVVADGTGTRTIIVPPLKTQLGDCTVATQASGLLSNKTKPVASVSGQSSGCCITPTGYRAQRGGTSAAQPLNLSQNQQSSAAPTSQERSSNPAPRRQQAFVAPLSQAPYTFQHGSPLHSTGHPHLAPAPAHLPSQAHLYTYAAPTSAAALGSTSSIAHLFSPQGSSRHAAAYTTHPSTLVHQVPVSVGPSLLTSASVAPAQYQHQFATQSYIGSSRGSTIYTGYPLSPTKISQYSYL
Chain of ROS1 (P08922 whole entry): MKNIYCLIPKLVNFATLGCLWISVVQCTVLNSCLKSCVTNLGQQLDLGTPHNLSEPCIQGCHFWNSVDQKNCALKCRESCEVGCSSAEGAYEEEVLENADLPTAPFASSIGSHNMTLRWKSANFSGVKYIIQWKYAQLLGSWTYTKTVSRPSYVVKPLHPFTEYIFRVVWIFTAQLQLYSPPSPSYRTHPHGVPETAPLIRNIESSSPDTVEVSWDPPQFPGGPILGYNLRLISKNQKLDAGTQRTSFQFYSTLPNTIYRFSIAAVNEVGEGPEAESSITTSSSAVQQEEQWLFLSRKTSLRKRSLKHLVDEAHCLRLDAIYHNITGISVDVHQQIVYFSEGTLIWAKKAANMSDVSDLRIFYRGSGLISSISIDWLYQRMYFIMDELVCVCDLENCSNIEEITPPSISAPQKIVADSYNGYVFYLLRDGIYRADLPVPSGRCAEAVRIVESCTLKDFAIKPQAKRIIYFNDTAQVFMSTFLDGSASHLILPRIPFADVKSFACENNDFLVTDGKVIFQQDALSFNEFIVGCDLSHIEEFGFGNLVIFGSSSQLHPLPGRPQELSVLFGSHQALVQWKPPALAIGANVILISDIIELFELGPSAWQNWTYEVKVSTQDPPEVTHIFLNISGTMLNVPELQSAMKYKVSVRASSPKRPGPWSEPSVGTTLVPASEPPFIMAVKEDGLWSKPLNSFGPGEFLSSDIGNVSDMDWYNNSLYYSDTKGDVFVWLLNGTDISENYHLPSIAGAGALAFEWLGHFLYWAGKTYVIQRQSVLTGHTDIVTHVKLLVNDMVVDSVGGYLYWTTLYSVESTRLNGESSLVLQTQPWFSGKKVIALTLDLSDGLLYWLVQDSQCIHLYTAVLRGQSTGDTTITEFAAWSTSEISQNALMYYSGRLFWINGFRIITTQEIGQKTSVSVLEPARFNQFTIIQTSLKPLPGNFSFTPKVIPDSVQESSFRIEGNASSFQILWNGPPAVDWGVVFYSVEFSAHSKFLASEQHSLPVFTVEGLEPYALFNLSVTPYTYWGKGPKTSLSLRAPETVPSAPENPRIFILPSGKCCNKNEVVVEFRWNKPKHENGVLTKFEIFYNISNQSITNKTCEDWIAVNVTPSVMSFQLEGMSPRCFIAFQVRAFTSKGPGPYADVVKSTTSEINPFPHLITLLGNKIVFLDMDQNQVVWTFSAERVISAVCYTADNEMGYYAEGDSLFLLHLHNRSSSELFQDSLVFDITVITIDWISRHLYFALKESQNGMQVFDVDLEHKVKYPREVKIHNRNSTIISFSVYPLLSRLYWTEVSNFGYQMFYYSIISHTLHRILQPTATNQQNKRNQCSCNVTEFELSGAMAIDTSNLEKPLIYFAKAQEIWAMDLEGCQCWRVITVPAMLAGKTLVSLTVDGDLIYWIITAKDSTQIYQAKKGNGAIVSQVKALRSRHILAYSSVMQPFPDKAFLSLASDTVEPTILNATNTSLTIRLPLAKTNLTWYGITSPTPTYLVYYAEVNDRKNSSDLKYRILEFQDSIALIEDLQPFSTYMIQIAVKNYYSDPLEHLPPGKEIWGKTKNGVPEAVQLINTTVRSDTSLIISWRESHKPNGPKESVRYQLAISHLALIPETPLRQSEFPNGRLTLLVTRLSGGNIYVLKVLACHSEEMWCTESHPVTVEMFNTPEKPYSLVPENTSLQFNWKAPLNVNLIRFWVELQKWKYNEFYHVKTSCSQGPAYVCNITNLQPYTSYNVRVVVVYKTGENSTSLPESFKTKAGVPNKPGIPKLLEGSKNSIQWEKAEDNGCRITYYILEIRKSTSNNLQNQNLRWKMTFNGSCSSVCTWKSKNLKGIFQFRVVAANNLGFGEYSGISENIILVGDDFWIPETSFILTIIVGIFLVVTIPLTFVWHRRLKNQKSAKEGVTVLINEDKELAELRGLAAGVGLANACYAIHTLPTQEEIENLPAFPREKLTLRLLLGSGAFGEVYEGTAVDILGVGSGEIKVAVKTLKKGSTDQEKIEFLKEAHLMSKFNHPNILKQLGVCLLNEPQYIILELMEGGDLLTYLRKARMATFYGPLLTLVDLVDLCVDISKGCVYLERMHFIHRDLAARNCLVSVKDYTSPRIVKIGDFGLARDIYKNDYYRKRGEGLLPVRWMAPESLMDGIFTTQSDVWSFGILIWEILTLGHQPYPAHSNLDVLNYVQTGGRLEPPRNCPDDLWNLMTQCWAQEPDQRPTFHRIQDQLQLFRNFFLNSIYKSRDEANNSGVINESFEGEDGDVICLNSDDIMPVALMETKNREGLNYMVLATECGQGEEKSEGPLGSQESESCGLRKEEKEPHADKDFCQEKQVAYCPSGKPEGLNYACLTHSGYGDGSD
Chain of KIT(V559D,V654A) (P10721 whole entry V559D/V654A): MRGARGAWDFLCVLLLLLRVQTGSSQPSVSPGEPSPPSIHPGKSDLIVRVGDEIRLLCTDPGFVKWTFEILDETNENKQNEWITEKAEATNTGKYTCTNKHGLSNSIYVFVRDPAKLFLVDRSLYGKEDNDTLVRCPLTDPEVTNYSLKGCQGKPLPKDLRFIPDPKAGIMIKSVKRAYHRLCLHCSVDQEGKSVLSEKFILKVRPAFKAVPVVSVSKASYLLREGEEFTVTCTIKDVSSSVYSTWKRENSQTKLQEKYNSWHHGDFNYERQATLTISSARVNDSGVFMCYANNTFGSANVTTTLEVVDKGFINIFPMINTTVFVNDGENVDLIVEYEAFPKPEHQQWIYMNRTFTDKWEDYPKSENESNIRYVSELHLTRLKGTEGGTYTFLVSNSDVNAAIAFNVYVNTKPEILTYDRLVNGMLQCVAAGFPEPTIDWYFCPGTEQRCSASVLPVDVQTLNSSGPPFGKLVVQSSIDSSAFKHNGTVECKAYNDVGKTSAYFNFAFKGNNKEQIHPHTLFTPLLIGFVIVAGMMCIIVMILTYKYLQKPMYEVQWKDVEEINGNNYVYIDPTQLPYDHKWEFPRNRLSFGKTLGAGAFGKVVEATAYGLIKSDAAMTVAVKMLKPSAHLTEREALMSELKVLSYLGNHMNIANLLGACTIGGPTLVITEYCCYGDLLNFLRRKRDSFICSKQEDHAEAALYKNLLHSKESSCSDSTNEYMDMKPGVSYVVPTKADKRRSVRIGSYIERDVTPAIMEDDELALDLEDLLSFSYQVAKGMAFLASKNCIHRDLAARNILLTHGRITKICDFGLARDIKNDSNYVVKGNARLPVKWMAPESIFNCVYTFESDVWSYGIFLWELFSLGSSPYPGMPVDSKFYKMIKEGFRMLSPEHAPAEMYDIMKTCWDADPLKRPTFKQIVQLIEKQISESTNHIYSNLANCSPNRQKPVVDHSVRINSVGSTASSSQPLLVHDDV

- remaining binding at 100 µM [1]: 84%
- remaining binding at 100 µM [2]: 100%
- remaining binding at 100 µM [3]: 86%
- remaining binding at 100 µM [4]: 100%
- remaining binding at 100 µM [5]: 45%
- remaining binding at 100 µM [6]: 79%
- remaining binding at 100 µM [7]: 100%
- remaining binding at 100 µM [8]: 61%
- remaining binding at 100 µM [9]: 93%
- remaining binding at 100 µM [10]: 80%
- remaining binding at 100 µM [11]: 86%
- remaining binding at 100 µM [12]: 90%
- remaining binding at 100 µM [13]: 90%
- remaining binding at 100 µM [14]: 72%
- remaining binding at 100 µM [15]: 83%
- remaining binding at 100 µM [16]: 65%
- remaining binding at 100 µM [17]: 61%
- remaining binding at 100 µM [18]: 69%
- remaining binding at 100 µM [19]: 84%
- remaining binding at 100 µM [20]: 54%
- remaining binding at 100 µM [21]: 52%
Compound: C=C(C)[C@H]1CC=C(C)C(=O)C1 [S-carvone]

From paper PMC10174618, “Monoterpenoid aryl hydrocarbon receptor allosteric antagonists protect against ultraviolet skin damage in female mice” (Nature Communications, 2023)
